A value given as a limit tells only on which side of the number the result lay.

This assay deals with USP7 (Homo sapiens, UniProt Q93009). Briefly: USP7 inhibitory potency (IC50). It is filed as biochemical. On the procedure: Activity for compounds described herein is provided in Table 2, wherein potency levels are provided as follows: (Potency: USP7 IC50: A<0.01 μM; B=0.01-0.1 μM; C=>0.1 μM.
USP7, sequence (Q93009 whole entry): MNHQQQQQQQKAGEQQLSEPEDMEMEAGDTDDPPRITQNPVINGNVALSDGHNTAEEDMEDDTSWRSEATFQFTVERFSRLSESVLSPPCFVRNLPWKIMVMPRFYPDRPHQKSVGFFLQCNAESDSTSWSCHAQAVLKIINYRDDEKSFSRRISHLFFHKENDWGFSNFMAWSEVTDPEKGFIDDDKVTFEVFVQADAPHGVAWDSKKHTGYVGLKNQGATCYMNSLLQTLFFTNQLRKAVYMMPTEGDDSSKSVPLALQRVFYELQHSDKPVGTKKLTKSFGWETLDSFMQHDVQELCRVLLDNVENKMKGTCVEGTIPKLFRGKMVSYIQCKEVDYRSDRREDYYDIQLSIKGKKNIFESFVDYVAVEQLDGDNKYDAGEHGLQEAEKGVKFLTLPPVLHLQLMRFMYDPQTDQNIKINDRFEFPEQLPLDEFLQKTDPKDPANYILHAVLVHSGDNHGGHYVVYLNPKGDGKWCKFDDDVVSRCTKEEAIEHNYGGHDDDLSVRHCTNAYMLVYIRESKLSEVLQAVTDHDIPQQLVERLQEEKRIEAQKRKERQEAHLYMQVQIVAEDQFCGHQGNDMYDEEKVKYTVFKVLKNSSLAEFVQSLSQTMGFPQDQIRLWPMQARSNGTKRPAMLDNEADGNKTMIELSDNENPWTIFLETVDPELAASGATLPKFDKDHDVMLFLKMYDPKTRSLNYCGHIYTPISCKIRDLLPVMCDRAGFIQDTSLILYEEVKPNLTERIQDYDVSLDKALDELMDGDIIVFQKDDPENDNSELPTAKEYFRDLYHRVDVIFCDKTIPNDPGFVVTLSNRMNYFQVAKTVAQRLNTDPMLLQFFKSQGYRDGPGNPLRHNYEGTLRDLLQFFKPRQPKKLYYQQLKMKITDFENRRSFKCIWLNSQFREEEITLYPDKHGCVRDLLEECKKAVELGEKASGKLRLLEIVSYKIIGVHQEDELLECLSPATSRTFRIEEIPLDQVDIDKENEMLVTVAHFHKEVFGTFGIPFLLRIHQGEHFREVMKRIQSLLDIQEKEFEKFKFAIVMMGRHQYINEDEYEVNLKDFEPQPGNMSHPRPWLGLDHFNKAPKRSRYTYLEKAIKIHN
`Cc1cc(Cl)cc(-c2ncnc3cc(CN4C(=O)C5CCCN5C4=O)sc23)c1CC1CNCCO1` (stereo not drawn) [Example 187, 2-((4-(5-chloro-3-methyl-2-(morpholin-2-ylmethyl)phenyl)thieno[3,2-d]pyrimidin-6-yl)methyl)tetrahydro-1H-pyrrolo[1,2-c]imidazole-1,3(2H)-dione] had a 50% inhibitory concentration (IC50) below 10 nM.
With `Cc1cc(Cl)cc(-c2ccnc3cc(CN4C(=O)C5CC5C4=O)sc23)c1CN1C[C@H](C)NC[C@H]1C` (stereo partly drawn) [Example 37, 3-((7-(5-chloro-2-(((2R,5 S)-2,5-dimethylpiperazin-1-yl)methyl)-3-methylphenyl)thieno[3,2-b]pyridin-2-yl)methyl)-3-azabicyclo[3.1.0]hexane-2,4-dione] the figure was below 10 nM; with `C[C@@H]1CN(Cc2c(Cl)cc(Cl)cc2-c2ncnc3cc(CN4C(=O)C5CC5C4=O)sc23)[C@@H](C)CN1` (stereo partly drawn) [Example 75, 3-((4-(3,5-dichloro-2-(((2S,5R)-2,5-dimethylpiperazin-1-yl)methyl)phenyl)thieno[3,2-d]pyrimidin-6-yl)methyl)-3-azabicyclo[3.1.0]hexane-2,4-dione], below 10 nM; with `Cc1cc(Cl)cc(-c2ccnc3cc([C@H](C)N4C(=O)C5CC5C4=O)sc23)c1C[C@@H]1CNCC(C)(C)O1` (stereo partly drawn) [Example 137, 3-((S)-1-(7-(5-chloro-2-(((R)-6,6-dimethylmorpholin-2-yl)methyl)-3-methylphenyl)thieno[3,2-b]pyridin-2-yl)ethyl)-3-azabicyclo[3.1.0]hexane-2,4-dione], below 10 nM.
As to `Cc1cc(Cl)cc(-c2ncnc3cc(CN4C(=O)CNC4=O)sc23)c1C[C@@H]1CNCCO1` [Example 243, (R)-3-((4-(5-chloro-3-methyl-2-(morpholin-2-ylmethyl)phenyl)thieno[3,2-d]pyrimidin-6-yl)methyl)imidazolidine-2,4-dione], the half-maximal inhibitory concentration (IC50) is below 10 nM.
As to `Cc1cc(Cl)cc(-c2ccnc3cc(CN4C(=O)CCC4=O)sc23)c1CN1CCN(CCO)C[C@@H]1C` [Example 13, (S)-1-((7-(5-chloro-2-((4-(2-hydroxyethyl)-2-methylpiperazin-1-yl)methyl)-3-methylphenyl)thieno[3,2-b]pyridin-2-yl)methyl)pyrrolidine-2,5-dione], the 50% inhibitory concentration (IC50) was below 10 nM.
Under `Cc1cc(Cl)cc(-c2ncnc3cc(CN4C(=O)CC(C)(C)CC4=O)sc23)c1CN1C[C@@H](C)NC[C@@H]1C` [Example 70, 1-((4-(5-chloro-2-(((2S,5R)-2,5-dimethylpiperazin-1-yl)methyl)-3-methylphenyl)thieno[3,2-d]pyrimidin-6-yl)methyl)-4,4-dimethylpiperidine-2,6-dione] stands 10 to 100 nM; under “3-((7-(5-chloro-2-(((2S,6S)-2,6-dimethyl piperazin-1-yl)methyl)-3-methylphenyl)thieno[3,2-b]pyridin-2-yl)methyl)-1-methylpyrimidine-2,4(1H,3H)-dione [Example 78]”, below 10 nM.
`Cc1cc(Cl)cc(-c2ccnc3cc(CN4C(=O)CCCC4=O)sc23)c1CC1CNCCO1` (stereo not drawn) [Example 107, 1-((7-(5-chloro-3-methyl-2-(morpholin-2-ylmethyl)phenyl)thieno[3,2-b]pyridin-2-yl)methyl)piperidine-2,6-dione]: the IC50 was below 10 nM.
In turn, `Cc1cc(Cl)cc(-c2ncnc3cc(CN4C(=O)CN(C)C4=O)sc23)c1CC1CNCCO1` (stereo not drawn) [Example 177, 3-((4-(5-chloro-3-methyl-2-(morpholin-2-ylmethyl)phenyl)thieno[3,2-d]pyrimidin-6-yl)methyl)-1-methylimidazolidine-2,4-dione] gave an IC50 below 10 nM.
Compound `Cc1cc(Cl)cc(-c2ncnc3cc(CN4C(=O)CCC45CC5)sc23)c1CC1CNCC(C)(C)O1` (stereo not drawn) [Example 203, 4-((4-(5-chloro-2-((6,6-dimethylmorpholin-2-yl)methyl)-3-methylphenyl)thieno[3,2-d]pyrimidin-6-yl)methyl)-4-azaspiro[2.4]heptan-5-one] had an IC50 of 10 to 100 nM.
With `Cc1cc(Cl)cc(-c2ncnc3cc(Cn4cccc4C#N)sc23)c1C[C@@H]1CNCC(C)(C)O1` [Example 239, (R)-1-((4-(5-chloro-2-((6,6-dimethylmorpholin-2-yl)methyl)-3-methylphenyl)thieno[3,2-d]pyrimidin-6-yl)methyl)-1H-pyrrole-2-carbonitrile] the figure was above 100 nM; with `Cc1cc(Cl)cc(-c2ncnc3cc(CN4C(=O)CCN(CCF)C4=O)sc23)c1C[C@@H]1CNCC(C)(C)O1` [Example 257, 3-[[4-[5-chloro-2-[[(2R)-6,6-dimethylmorpholin-2-yl]methyl]-3-methyl-phenyl]thieno[3,2-d]pyrimidin-6-yl]methyl]-1-(2-fluoroethyl)hexahydropyrimidine-2,4-dione], below 10 nM.
With `Cc1cc(Cl)cc(-c2ncnc3cc(CN4C(=O)CN(C)C4=O)sc23)c1CC1CNCC(C)(C)O1` (stereo not drawn) [Example 183, 3-((4-(5-chloro-2-((6,6-dimethylmorpholin-2-yl)methyl)-3-methylphenyl)thieno[3,2-d]pyrimidin-6-yl)methyl)-1-methylimidazolidine-2,4-dione] the figure was below 10 nM; with `COC(=O)C1CC1C(=O)NCc1cc2ncnc(-c3cc(Cl)cc(C)c3C[C@H]3OCCN[C@@H]3C)c2s1` (stereo partly drawn) [Example 161, methyl 2-(((4-(5-chloro-3-methyl-2-(((2R,3R)-3-methylmorpholin-2-yl)methyl)phenyl)thieno[3,2-d]pyrimidin-6-yl)methyl)carbamoyl)cyclopropane-1-carboxylate], 10 to 100 nM.
With `Cc1cc(Cl)cc(-c2ncnc3cc(CN4C(=O)CCN(CCF)C4=O)sc23)c1CN1[C@@H](C)CNC[C@@H]1C` [Example 258, 3-((4-(5-chloro-2-(((2S,6S)-2,6-dimethylpiperazin-1-yl)methyl)-3-methylphenyl)thieno[3,2-d]pyrimidin-6-yl)methyl)-1-(2-fluoroethyl)dihydropyrimidine-2,4(1H,3H)-dione] the figure was below 10 nM; with `Cc1cc(Cl)cc(-c2ccnc3cc(Cn4c(=O)ccn(CC(F)(F)F)c4=O)sc23)c1CN1CCNCC1=O` [Example 4, 3-((7-(5-chloro-3-methyl-2-((2-oxopiperazin-1-yl)methyl)phenyl)thieno[3,2-b]pyridin-2-yl)methyl)-1-(2,2,2-trifluoroethyl)pyrimidine-2,4(1H,3H)-dione], above 100 nM.
Compound `CN1CCC(=O)N(Cc2cc3nccc(-c4cc(Cl)cc(Cl)c4CC4CNCC(C)(C)O4)c3s2)C1=O` (stereo not drawn) [Example 135, 3-((7-(3,5-dichloro-2-((6,6-dimethylmorpholin-2-yl)methyl)phenyl)thieno[3,2-b]pyridin-2-yl)methyl)-1-methyldihydropyrimidine-2,4(1H,3H)-dione] registered an IC50 below 10 nM.
Take `Cc1cc(Cl)cc(-c2ncnc3cc(CN4C(=O)COC4=O)sc23)c1CC1CNCCO1` (stereo not drawn) [Example 178, 3-((4-(5-chloro-3-methyl-2-(morpholin-2-ylmethyl)phenyl)thieno[3,2-d]pyrimidin-6-yl)methyl)oxazolidine-2,4-dione]: the IC50 was below 10 nM.
`Cc1cc(Cl)cc(-c2ncnc3cc(CN4C(=O)CC[C@@H]4CO)sc23)c1CC1CNCC(C)(C)O1` (stereo partly drawn) [Example 206, (5R)-1-((4-(5-chloro-2-((6,6-dimethylmorpholin-2-yl)methyl)-3-methylphenyl)thieno[3,2-d]pyrimidin-6-yl)methyl)-5-(hydroxymethyl)pyrrolidin-2-one]: the IC50 fell in the range of 10 to 100 nM.
As for `Cc1cc(Cl)cc(-c2ncnc3cc(CN4C(=O)CCN(CC(F)F)C4=O)sc23)c1C[C@@H]1CNCC(C)(C)O1` [Example 240, (R)-3-((4-(5-chloro-2-((6,6-dimethylmorpholin-2-yl)methyl)-3-methylphenyl)thieno[3,2-d]pyrimidin-6-yl)methyl)-1-(2,2-difluoroethyl)dihydropyrimidine-2,4(1H,3H)-dione], the 50% inhibitory concentration (IC50) was below 10 nM.
With `Cc1cc(Cl)cc(-c2ncnc3cc(CN4C(=O)C5CCCN5C4=O)sc23)c1CC1CNCC(C)(C)O1` (stereo not drawn) [Example 191, 2-((4-(5-chloro-2-((6,6-dimethylmorpholin-2-yl)methyl)-3-methylphenyl)thieno[3,2-d]pyrimidin-6-yl)methyl)tetrahydro-1H-pyrrolo[1,2-c]imidazole-1,3(2H)-dione] the figure was below 10 nM; with `Cc1cc(Cl)cc(-c2ncnc3cc(CN4C(=O)C5CC5C4=O)sc23)c1CC1(C)CNCCO1` (stereo not drawn) [Example 156, 3-((4-(5-chloro-3-methyl-2-((2-methylmorpholin-2-yl)methyl)phenyl)thieno[3,2-d]pyrimidin-6-yl)methyl)-3-azabicyclo[3.1.0]hexane-2,4-dione], 10 to 100 nM.
Under `Cc1cc(Cl)cc(-c2ccnc3cc(CN4C(=O)CCC4=O)sc23)c1CN1CCNC[C@@H]1C` [Example 8, (S)-1-((7-(5-chloro-3-methyl-2-((2-methylpiperazin-1-yl)methyl)phenyl)thieno[3,2-b]pyridin-2-yl)methyl)pyrrolidine-2,5-dione] stands below 10 nM; under `Cc1cc(Cl)cc(-c2ncnc3cc(CN4C(=O)CC[C@@H]4CF)sc23)c1C[C@@H]1CNCC(C)(C)O1` [Example 219, (R)-1-((4-(5-chloro-2-(((R)-6,6-dimethylmorpholin-2-yl)methyl)-3-methylphenyl)thieno[3,2-d]pyrimidin-6-yl)methyl)-5-(fluoromethyl)pyrrolidin-2-one], below 10 nM; under `Cc1cc(Cl)cc(-c2ccnc3cc(CN4C(=O)CCC4=O)sc23)c1CC1CNCC2(CCC2)O1` (stereo not drawn) [Example 143, 1-((7-(2-((5-oxa-8-azaspiro[3.5]nonan-6-yl)methyl)-5-chloro-3-methylphenyl)thieno[3,2-b]pyridin-2-yl)methyl)pyrrolidine-2,5-dione], below 10 nM.
Compound `CC1(C)CNCC(Cc2c(-c3ncnc4cc(CN5C(=O)C6CC6C5=O)sc34)cc(Cl)cc2C(F)F)O1` (stereo not drawn) [Example 250, 3-((4-(5-chloro-3-(difluoromethyl)-2-((6,6-dimethylmorpholin-2-yl)methyl)phenyl)thieno[3,2-d]pyrimidin-6-yl)methyl)-3-azabicyclo[3.1.0]hexane-2,4-dione] showed a half-maximal inhibitory concentration (IC50) below 10 nM.

The values are drawn from patent publication US11084829B2, “Ubiquitin-specific-processing protease 7 (USP7) modulators and uses thereof” (RAPT THERAPEUTICS, INC., priority 2018, dated 2021).
